Columns and labels:
Assay type in all cases: cell-based
[1] = biological target: T1, GALR3 single mutant P^267R (Homo sapiens, UniProt O60755, P267R); test: SRE-luc luciferase assay, GALR3 P267R; conditions: GALR3 P^267R; SRE-luc in HEK293 Gqi cells, ligand 6 h; mean ± S.E.; SEM
T1 construct: expressed in transfected cells; host or cells: HEK293 cells stably expressing Gqi
Excerpt: (§1) For domain swapping between GALR2 and GALR3, individual cDNA fragments of interest were amplified by polymerase chain reaction (PCR) with Pfu polymerase (ELPIS Biotech, Daejeon, Korea) and two specific primers, one corresponding to the 5' or 3' end of the GALR2 or GALR3 cDNA and the other to the region of overlap between the two receptors. The two resulting fragments, one from GALR2 and the other from GALR3, were subjected to a second round of PCR to generate the chimeric cDNAs. To construct single, double-, triple-, pentuple-, hextuple-, and septuple-mutant receptors, amino acids of GALR3 were substituted for the amino acids at the corresponding positions in GALR2 using PCR-based site-directed mutagenesis. All of the chimeric constructs were cloned into the pcDNA3 expression vector at HindⅢ and XbaⅠ sites. The DNA sequences of the chimeras were verified by automatic sequencing. […] The luciferase activity in 50 μl cell extract was determined using a luciferase assay system according to the standard protocol for the Synergy 2 Multi-Mode Microplate Reader (BioTek, Winooski, VT, USA). […] The concentrations of agonists that induced half-maximal stimulation (EC50) were calculated using the GraphPad PRISM5 software (GraphPad software, Inc., San Diego, CA). […]

GALR3 = biological target: T2, GALR3 (Homo sapiens, UniProt O60755); test: cAMP assay (inhibition of forskolin-induced cAMP), WT GALR3; design: expressed in transfected cells; host or cells: HEK293 cells stably expressing pGlosensor-22F cAMP plasmid; conditions: Glosensor-22F cAMP HEK293 cells, agonist 10 min then forskolin 10 μM, mean ± SE, SEM
T2 sequence (O60755 1-368): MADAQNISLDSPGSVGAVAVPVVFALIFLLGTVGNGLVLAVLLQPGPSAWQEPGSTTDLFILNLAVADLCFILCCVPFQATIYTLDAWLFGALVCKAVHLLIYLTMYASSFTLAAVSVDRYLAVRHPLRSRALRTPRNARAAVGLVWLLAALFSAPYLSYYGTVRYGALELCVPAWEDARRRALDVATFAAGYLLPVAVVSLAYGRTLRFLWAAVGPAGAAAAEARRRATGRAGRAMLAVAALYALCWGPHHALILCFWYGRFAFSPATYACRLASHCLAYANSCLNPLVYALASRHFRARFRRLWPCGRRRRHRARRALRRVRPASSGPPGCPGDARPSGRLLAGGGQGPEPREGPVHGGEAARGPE
Experimental: SPX-induced or Qu-SPX-induced cyclic adenosine monophosphate (cAMP) mobilization was measured in HEK293 cells stably expressing the pGlosensor^TM-22F cAMP plasmid (Promega Corp., Madison, WI, USA). The Glosensor-22F cAMP HEK293 cells were seeded on 96-well plates at a density of 2.0 × 10^4 cells/well 24 h before transfection. A mixture including 100 ng expression plasmid and lipofectamine 2000 reagent in diluted Opti-MEM (Gibco) was incubated at room temperature for 20 min. The mixtures were added into each well according to the manufacturer's instructions (Invitrogen, CA, USA). After 48 h, Glosensor cAMP substrates were added to the transfected cells in CO2-independent media. After 2 h, the cells were incubated with a range of agonist concentrations or vehicle for 10 min and then exposed to foskolin (10 μM). Luminescence was measured for up to 30 min using a Microplate Reader (BioTek, Winooski, VT, USA).
Data analysis was performed by non-linear regression with a sigmoidal dose-response curve. The concentrations of agonists that induced half-maximal stimulation (EC50) were calculated using the GraphPad PRISM5 software (GraphPad software, Inc., San Diego, CA). All data are presented as the mean ± standard error (SE) of at least three independent experiments. […]

[2] = biological target: T3, GALR3 single mutant A^264P (Homo sapiens, UniProt O60755, A264P); test: SRE-luc luciferase assay, GALR3 A264P; conditions: GALR3 A^264P; SRE-luc in HEK293 Gqi cells, ligand 6 h; mean ± S.E.; SEM
T3 construct: expressed in transfected cells; host or cells: HEK293 cells stably expressing Gqi
T3 sequence (O60755 whole entry A264P): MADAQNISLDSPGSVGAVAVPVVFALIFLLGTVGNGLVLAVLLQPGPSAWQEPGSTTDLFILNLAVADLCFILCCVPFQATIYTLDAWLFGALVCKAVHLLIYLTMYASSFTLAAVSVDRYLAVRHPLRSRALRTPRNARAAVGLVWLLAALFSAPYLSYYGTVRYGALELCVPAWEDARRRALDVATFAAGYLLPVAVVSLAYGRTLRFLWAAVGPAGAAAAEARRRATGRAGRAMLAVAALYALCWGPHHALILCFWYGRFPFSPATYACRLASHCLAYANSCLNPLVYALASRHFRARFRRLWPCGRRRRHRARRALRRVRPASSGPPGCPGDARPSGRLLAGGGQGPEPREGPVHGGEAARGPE
Excerpt: as §1

T1 sequence (O60755 whole entry P267R): as the sequence (O60755 whole entry A264P) above, with P264A, P267R counted along it

How did the EC50 [1] turn out when `CSCC[C@H](NC(=O)[C@H](C)NC(=O)[C@H](CCC(N)=O)NC(=O)[C@@H]1CCCN1C(=O)[C@@H](NC(=O)[C@H](Cc1c[nH]c2ccccc12)NC(=O)[C@@H](N)CC(N)=O)[C@@H](C)O)C(=O)N[C@@H](CC(C)C)C(=O)N[C@@H](Cc1ccc(O)cc1)C(=O)N[C@@H](CC(C)C)C(=O)N[C@@H](CCCCN)C(=O)NCC(=O)N[C@@H](C)C(=O)N[C@@H](CCC(N)=O)C(N)=O` [SPX, reference compound] was run?
Its EC50 is 115 ± 48.7 nM.

What about the EC50 (GALR3) of the same compound?
The EC50 was 117 ± 51.4 nM.

What about the EC50 [2] of the same compound?
Its EC50 is 274 ± 76 nM.

Source: article PMC7108740, “Exploring the molecular structures that confer ligand selectivity for galanin type II and III receptors” (PLoS ONE, 2020)
